Bounds are passed on as bounds.

A word on the melting point: it is the temperature, or range, at which the solid turns liquid. Compound `O=C1NC(=S)N/C1=C\c1c[nH]c2ncc(-c3ccccc3)cc12` [Example 16, (5Z)-5-[(5-phenyl-1H-pyrrolo[2,3-b]pyridin-3-yl)methylene]-2-thioxoimidazolidin-4-one] registered a melting point of 265 to 270 °C.
The result for `O=C1NC(N2CCCCCC2)=N/C1=C\c1c[nH]c2ncc(Cl)cc12` [Example 25, (5Z)-2-azepan-1-yl-5-[(5-chloro-1H-pyrrolo[2,3-b]pyridin-3-yl)methylidene]-3,5-dihydro-4H-imidazol-4-one] reads 310 to 320 °C; that for `O=C1NC(N2CCCC2)=N/C1=C\c1c[nH]c2ncc(Cl)cc12` [Example 27, (5Z)-5-[(5-chloro-1H-pyrrolo[2,3-b]pyridin-3-yl)methylidene]-2-pyrrolidin-1-yl-3,5-dihydro-4H-imidazol-4-one], 350 to 360 °C; that for `CC(C)CNC1=N/C(=C\c2c[nH]c3ncc(Cl)cc23)C(=O)N1` [Example 29, (5Z)-5-[(5-chloro-1H-pyrrolo[2,3-b]pyridin-3-yl)methylidene]-2-[(2-methylpropyl)amino]-3,5-dihydro-4H-imidazol-4-one], 325 to 330 °C.
The result for `O=C1NC(N2CCCCC2)=N/C1=C\c1c[nH]c2ncc(Cl)cc12` [Example 30, (5Z)-5-[(5-chloro-1H-pyrrolo[2,3-b]pyridin-3-yl)methylidene]-2-piperidin-1-yl-3,5-dihydro-4H-imidazol-4-one] reads 315 to 320 °C.
The result for `CN(C)C1=N/C(=C\c2c[nH]c3ncc(Cl)cc23)C(=O)N1` [Example 32, (5Z)-5-[(5-chloro-1H-pyrrolo[2,3-b]pyridin-3-yl)methylidene]-2-(dimethylamino)-3,5-dihydro-4H-imidazol-4-one] reads 350 °C.
On to `COc1cnc2[nH]cc(/C=C3\N=C(NCC4CC4)NC3=O)c2c1` [Example 34, (5Z)-2-[(cyclopropylmethyl)amino]-5-[(5-methoxy-1H-pyrrolo[2,3-b]pyridin-3-yl)methylidene]-3,5-dihydro-4H-imidazol-4-one], for which the melting point lay in the range of 280 to 286 °C.
The result for `O=C1NC(N2CCCCCC2)=N/C1=C\c1c[nH]c2ncc(F)cc12` [Example 36, (5Z)-2-azepan-1-yl-5-[(5-fluoro-1H-pyrrolo[2,3-b]pyridin-3-yl)methylidene]-3,5-dihydro-4H-imidazol-4-one] reads 299 °C; that for `N#Cc1cnc2[nH]cc(/C=C3\N=C(NCC4CC4)NC3=O)c2c1` [Example 37, 3-[(Z)-{2-[(cyclopropylmethyl)amino]-5-oxo-1,5-dihydro-4H-imidazol-4-ylidene}methyl]-1H-pyrrolo[2,3-b]pyridine-5-carbonitrile], 335 °C.
The figure for `O=C1NC(N2CCOCC2)=N/C1=C\c1c[nH]c2ncc(-c3ccccc3)cc12` [Example 39, (5Z)-2-morpholin-4-yl-5-[(5-phenyl-1H-pyrrolo[2,3-b]pyridin-3-yl)methylidene]-3,5-dihydro-4H-imidazol-4-one] is 361 °C; for `O=C1NC(N2CCCCC2)=N/C1=C\c1c[nH]c2ncc(-c3ccccc3)cc12` [Example 40, (5Z)-5-[(5-phenyl-1H-pyrrolo[2,3-b]pyridin-3-yl)methylidene]-2-piperidin-1-yl-3,5-dihydro-4H-imidazol-4-one] it is 307 °C.
The figure for `CN1CCN(C2=N/C(=C\c3c[nH]c4ncc(-c5ccccc5)cc34)C(=O)N2)CC1` [Example 41, (5Z)-2-(4-methylpiperazin-1-yl)-5-[(5-phenyl-1H-pyrrolo[2,3-b]pyridin-3-yl)methylidene]-3,5-dihydro-4H-imidazol-4-one] is 304 °C.
As for `O=C1NC(N2CCCCCC2)=N/C1=C\c1c[nH]c2ncc(-c3ccccc3)cc12` [Example 42, (5Z)-2-azepan-1-yl-5-[(5-phenyl-1H-pyrrolo[2,3-b]pyridin-3-yl)methylidene]-3,5-dihydro-4H-imidazol-4-one], the melting point came to 302 °C.
`Cc1cnc2[nH]cc(/C=C3\N=C(NCC4CC4)NC3=O)c2c1` [Example 43, (5Z)-2-[(cyclopropylmethyl)amino]-5-[(5-methyl-1H-pyrrolo[2,3-b]pyridin-3-yl)methylidene]-3,5-dihydro-4H-imidazol-4-one] returned a melting point of 319 to 320 °C.
The figure for `Cc1cnc2[nH]cc(/C=C3\N=C(NCC(C)C)NC3=O)c2c1` [Example 44, (5Z)-2-[(2-methylpropyl)amino]-5-[(5-methyl-1H-pyrrolo[2,3-b]pyridin-3-yl)methylidene]-3,5-dihydro-4H-imidazol-4-one] is 338 to 339 °C; for `Cc1cnc2[nH]cc(/C=C3\N=C(N4CCCCC4)NC3=O)c2c1` [Example 45, (5Z)-5-[(5-methyl-1H-pyrrolo[2,3-b]pyridin-3-yl)methylidene]-2-piperidin-1-yl-3,5-dihydro-4H-imidazol-4-one] it is 320 to 321 °C.
The figure for `Cc1cnc2[nH]cc(/C=C3\N=C(N4CCN(c5ccccc5)CC4)NC3=O)c2c1` [Example 46, (5Z)-5-[(5-methyl-1H-pyrrolo[2,3-b]pyridin-3-yl)methylidene]-2-(4-phenylpiperazin-1-yl)-3,5-dihydro-4H-imidazol-4-one] is 331 to 332 °C; for `O=C1NC(NCC2CC2)=N/C1=C\c1c[nH]c2ncc(C(F)(F)F)cc12` [Example 48, (5Z)-2-[(cyclopropylmethyl)amino]-5-{[5-(trifluoromethyl)-1H-pyrrolo[2,3-b]pyridin-3-yl]methylidene}-3,5-dihydro-4H-imidazol-4-one] it is 350 °C; for `O=C1NC(N2CCCCCC2)=N/C1=C\c1c[nH]c2ncc(C(F)(F)F)cc12` [Example 49, (5Z)-2-azepan-1-yl-5-{[5-(trifluoromethyl)-1H-pyrrolo[2,3-b]pyridin-3-yl]methylidene}-3,5-dihydro-4H-imidazol-4-one] it is 340 °C.
The figure for `O=C1NC(NCC2CC2)=N/C1=C\c1c[nH]c2ncc(N3CCOCC3)cc12` [Example 51, (5Z)-2-[(cyclopropylmethyl)amino]-5-[(5-morpholin-4-yl-1H-pyrrolo[2,3-b]pyridin-3-yl)methylidene]-3,5-dihydro-4H-imidazol-4-one] is 331 °C.
Regarding `CSC1=N/C(=C\c2c[nH]c3ncc(Cl)cc23)C(=O)N1` [Example 60, (5Z)-5-[(5-chloro-1H-pyrrolo[2,3-b]pyridin-3-yl)methylidene]-2-(methylsulphanyl)-3,5-dihydro-4H-imidazol-4-one], the melting point was greater than 410 °C.
`O=C1NC(SCc2ccccc2)=N/C1=C\c1c[nH]c2ncc(Cl)cc12` [Example 61, (5Z)-2-(benzylsulphanyl)-5-[(5-chloro-1H-pyrrolo[2,3-b]pyridin-3-yl)methylidene]-3,5-dihydro-4H-imidazol-4-one]: the melting point lay in the range of 313 to 315 °C.
The figure for `CCCSC1=N/C(=C\c2c[nH]c3ncc(Cl)cc23)C(=O)N1` [Example 62, (5Z)-5-[(5-chloro-1H-pyrrolo[2,3-b]pyridin-3-yl)methylidene]-2-(propylsulphanyl)-3,5-dihydro-4H-imidazol-4-one] is 316 to 318 °C.
The result for `CC(C)SC1=N/C(=C\c2c[nH]c3ncc(Cl)cc23)C(=O)N1` [Example 63, (5Z)-5-[(5-chloro-1H-pyrrolo[2,3-b]pyridin-3-yl)methylidene]-2-((1-methyl)ethylsulphanyl)-3,5-dihydro-4H-imidazol-4-one] reads 291 to 293 °C; that for `CCCCC1=N/C(=C\c2c[nH]c3ncc(Cl)cc23)C(=O)N1` [Example 64, (5Z)-2-butyl-5-[(5-chloro-1H-pyrrolo[2,3-b]pyridin-3-yl)methylidene]-3,5-dihydro-4H-imidazol-4-one], 288 to 290 °C.
The figure for `CCCCC1=N/C(=C\c2c[nH]c3nc(Cl)ccc23)C(=O)N1` [Example 65, (5Z)-2-butyl-5-[(6-chloro-1H-pyrrolo[2,3-b]pyridin-3-yl)methylidene]-3,5-dihydro-4H-imidazol-4-one] is 318 to 321 °C.
For the compound `CCCCC1=N/C(=C\c2c[nH]c3ncccc23)C(=O)N1C` [Example 66, (5Z)-2-butyl-3-methyl-5-(1H-pyrrolo[2,3-b]pyridin-3-ylmethylidene)-3,5-dihydro-4H-imidazol-4-one], the melting point lay within 220 to 222 °C.
The figure for `O=C1NC(CCc2ccccc2)=N/C1=C\c1c[nH]c2ncccc12` [Example 67, (5Z)-2-(2-Phenylethyl)-5-(1H-pyrrolo[2,3-b]pyridin-3-ylmethylidene)-3,5-dihydro-4H-imidazol-4-one] is 270 to 272 °C; for `CC(C)CCC1=N/C(=C\c2c[nH]c3ncccc23)C(=O)N1` [Example 68, (5Z)-2-(3-methylbutyl)-5-(1H-pyrrolo[2,3-b]pyridin-3-ylmethylidene)-3,5-dihydro-4H-imidazol-4-one] it is 274 °C; for `CN1C(=O)/C(=C/c2c[nH]c3ncccc23)N=C1C1CCCCC1` [Example 70, (5Z)-2-cyclohexyl-3-methyl-5-(1H-pyrrolo[2,3-b]pyridin-3-ylmethylidene)-3,5-dihydro-4H-imidazol-4-one] it is 261 to 262 °C.
The figure for `O=C1NC(C2CCOCC2)=N/C1=C\c1c[nH]c2ncccc12` [Example 71, (5Z)-5-(1H-pyrrolo[2,3-b]pyridin-3-ylmethylidene)-2-(tetrahydro-2H-pyran-4-yl)-3,5-dihydro-4H-imidazol-4-one] is 317 to 319 °C.
As to `CN1C(=O)/C(=C/c2c[nH]c3ncccc23)N=C1C1CCOCC1` [Example 72, (5Z)-5-[(1H-pyrrolo[2,3-b]pyridin-3-yl)methylidene]-3-methyl-2-(tetrahydro-2H-pyran-4-yl)-3,5-dihydro-4H-imidazol-4-one], the melting point is 283 to 285 °C.
The figure for `CN1C(=O)/C(=C/c2c[nH]c3ncc(Cl)cc23)N=C1C1CCOCC1` [Example 73, (5Z)-5-[(5-chloro-1H-pyrrolo[2,3-b]pyridin-3-yl)methylidene]-3-methyl-2-(tetrahydro-2H-pyran-4-yl)-3,5-dihydro-4H-imidazol-4-one] is 338 °C.

These data come from patent publication US8314121B2, “Imidazolone derivatives, preparation thereof as drugs, pharmaceutical compositions, and use thereof as protein kinase inhibitors, in particular CDC7” (Sanofi, priority 2006, dated 2012).
